In patent publication US11491127B2, “Therapeutic use of compounds” (UCL BUSINESS LTD, priority 2010, dated 2022):
Like-named read-outs stand apart in the source and are kept apart here.

Key:
[1] = tested on: phosphoinositide (PIP and PIP2) turnover in Dictyostelium AX2 cells; assay: Dictyostelium phospholipid labelling (PIP and PIP2 turnover); format: cell-based, Dictyostelium discoideum; details: for activity at 500 µM: 0.1 h
Experimental: Phospholipid labelling was quantified using a Typhoon phosphor-imager. Even loading was determined using total lipid stain with copper sulphate.

[2] = tested on: uptake of 3H arachidonic acid / palmitic acid into Dictyostelium cells; assay: Fatty acid uptake (3H radiolabel incorporation into cells); format: cell-based, Dictyostelium discoideum; details: for EC50: Dictyostelium
[3] = tested on: inositol levels in Dictyostelium cells; assay: Inositol levels in treated Dictyostelium cells; format: cell-based, Dictyostelium discoideum; details: time period causing phosphoinositide attenuation (9 min)
Experimental: Following a 6 min incubation, labelling solution was removed and cells were lysed in acidified methanol and phospholipids were separated as previously detailed (Williams et al., 1999). Phospholipid labelling was quantified using a Typhoon phosphor-imager. Even loading was determined using total lipid stain with copper sulphate. Inositol levels were measured from five hour developed cells (similar to phospholipid labelling), following lyophilisation, as previously described (Maslanski & Busa, 1990).

[4] = tested on: Dictyostelium development; assay: Dictyostelium development; format: cell-based, Dictyostelium discoideum; details: concentrations found in plasma of patients (0.28-0.7 mM)
Experimental: Screening of a REMI library was carried out as previously described (Kuspa & Loomis, 2006) using A×2 background, with VPA resistant mutants selected for the ability to develop in the presence of 1 mM VPA on R. planticola. Identification of the ablated gene, enabled the identified PLAa (DDB_G0278525; SEQ ID NO: 16) to be recapitulated using by homologous recombination of a knockout cassette. Primers used for amplifying region within the open reading frame of the gene were (5′ […] (SEQ ID NO: 17) and 3′ […] (SEQ ID NO: 18), cloned by pCR2.1 TOPO (Invitrogen Ltd)), cloned into pUC19 using EcoRI digestion, and Sinai digested fragment from pBLPblp (Falx et al, 2004) was inserted into the EcoRV site of the insert. Genetic ablation was confirmed by PCR analysis. […] Development images were observed using a Leica CLS 150× microscope and images recorded using QICAM FAST 1394 camera. Fatty acid activation was determined by the method established by Wilson et al. (Wilson et al, 1982) with slight modifications. […] The organic phase was discarded and the aqueous phase was washed six times with 300 μl of n-heptane to remove non-activated fatty acids before the radioactivity of the acyl-CoA thioester remaining in the aqueous phase was determined in 2 ml of Lumasafe™ Plus fluid (Lumac LSC, Groningen, The Netherlands) in a scintillation counter.

[5] = Table 2; cited from earlier work
[6] = tested on: inositol trisphosphate (InsP3) levels in Dictyostelium; details: Williams et al., 1999; cited from earlier work
[7] = 0.5 mM VPA, 6 min treatment (printed 6 mM)
[8] = 5×PI3K knockout mutant, 0.5 mM VPA, 9 min
[9] = PIPKinA knockout mutant, 0.5 mM VPA, 9 min
[10] = cells lacking phospholipase C gene, 0.5 mM VPA, 9 min
[11] = prolyl oligopeptidase (PO) ablated cells, 0.5 mM VPA, 9 min
[12] = rPKA knockout mutant, 0.5 mM VPA, 9 min

SMILES: CCCC(CCC)C(=O)O [VPA, 2-propylpentanoic acid, reference compound]
- reduction in radio-labelled PIP2 turnover [1, 7]: 49%
- reduction in radio-labelled PIP turnover [1, 7]: 49%
- reduction of PIP2 turnover ([1]; 0.5 mM VPA, 9 min treatment): 79%
- reduction of PIP turnover ([1]; 0.5 mM VPA, 9 min treatment): 68%
- reduction in PIP2 turnover ([1]; 0.5 mM VPA, 60 min treatment): 94%
- reduction in PIP turnover ([1]; 0.5 mM VPA, 60 min treatment): 94%
- reduction of PIP2 production compared to untreated cells [1, 8]: 70%
- reduction of PIP production compared to untreated cells [1, 8]: 48%
- activity at 500 µM ([1]; Dictyostelium, read-out: PIP Level (% control), Table 1, 0.5 mM compound, 3 min pre-treatment + 6 min labelling, wild type Dictyostelium): 32%
- activity at 500 µM ([1]; Dictyostelium, read-out: PIP level % control, Table 2, VPA and straight chain acids in Dictyostelium): 32%
- EC50 ([1]; Dictyostelium, 0.15 h, read-out: EC50 of inhibition of phosphoinositide turnover): 154 µM
- inhibition at 250 µM ([1]; Dictyostelium, 0.15 h, read-out: inhibition of PIP2 turnover): 42%
- inhibition at 250 µM ([1]; Dictyostelium, 0.15 h, read-out: inhibition of PIP turnover): 25%
- reduction in PIP2 synthesis compared to untreated cells [1, 9]: 68%
- reduction in PIP synthesis compared to untreated cells [1, 9]: 54%
- reduction in PIP2 signalling [1, 10]: 75%
- reduction in PIP signalling [1, 10]: 73%
- reduction in PIP2 signalling [1, 11]: 68%
- reduction in PIP signalling [1, 11]: 66%
- additional reduction of PIP2 production compared to untreated cells [1, 12]: 33%
- additional reduction of PIP production compared to untreated cells [1, 12]: 72%
- EC50 ([2]; 3H arachidonic acid, read-out: EC50 of increase in uptake of AA): 47 µM
- EC50 ([2]; 3H palmitic acid, read-out: EC50 of increase in uptake of palmitic acid): 160 µM
- fatty acid uptake in cell lines lacking fcsA ([2]; fcsA -/- cells, 0.5 mM VPA): increase
- reduction in inositol levels [3]: no significant reduction
- effect on development of Dictyostelium [4]: inhibits the development
- pKa [5]: 4.6
- treatment time required for depletion of inositol trisphosphate [6]: 6 h
